# According to ChEMBL document CHEMBL1159034, “Emodin, a protein tyrosine kinase inhibitor from Polygonum cuspidatum” (J Nat Prod, 1992):
# pKi: −log10 of the molar value. Activity calls are given as the source filed them. No cut-off for these calls is given here.
# What was measured:
# [1] = Inhibition of bovine thymus p56 LCK activity; set-up: species or system Bos taurus
# [2] = Inhibition of bovine thymus p56 LCK activity by competitive inhibition assay; set-up: species or system Bos taurus
# Bos taurus = species: Bos taurus; test: Inhibition of bovine thymus p56 LCK activity by noncompetitive inhibition assay
SMILES,IC50 [1] [mg/L],pKi [2],Activity (Bos taurus)
Cc1cc(O)c2c(c1)C(=O)c1cc(O)cc(O[C@@H]3O[C@H](CO)[C@@H](O)[C@H](O)[C@H]3O)c1C2=O [EMODIN 8-O-BETA-D-GLUCOPYRANOSIDE],> 800,,
Cc1cc(O)c2c(c1)C(=O)c1cc(O)cc(O)c1C2=O [EMODIN],5,4.89,Active
COc1cc(O)c2c(c1)C(=O)c1cc(C)cc(O)c1C2=O [PHYSCION],> 800,,
